Patent publication US20080226571A1, “Compositions and methods to effect enhanced photoprotection against UV A and UV B induced damage of human skin” (priority 2007, published 2008)
Marks after values point to notes of the source that are not given here.

Assays:
Assay type in all cases: cell-based
[1] = system: B16F1 mouse melanoma cells; assay: Intracellular melanin enhancement; conditions: for Melanin enhancement: summary in words, Table I
Experimental: B16F1 mouse melanoma cells are treated with varying concentrations of actives I, II and III and other optional actives or combinations thereof at a time interval of 3 days for nine consecutive days. The intracellular melanin in both the controls and test B16F1 mouse melanoma cells is extracted by 1 N NaOH and subjected to a heat treatment at 100° C. The extracted melanin is estimated at 405 nm in a Fluostar Optima Microplate Reader.

[2] = system: HaCaT human keratinocyte cell line; assay: UV B protection of HaCaT keratinocytes, topical application model (Protocol I, SRB viability); conditions: for % UV B protection as compared to control: Table B, Topical model; for UV protection UV B: summary in words, Table I, HaCaT, topical and oral protocols not separated
Experimental: (§1) The protocol is based on evaluating the reduction in photo damage caused by UV A and UV B in HaCaT human keratinocyte cell line. The cell viability is measured by Sulphorhodamine B assay (SRB assay) after exposure to UV rays. The percentage of UV protection is calculated based on the number of viable cells in the control (untreated) and test HaCaT human keratinocytes (treated with the labdane-diterpenoids based composition of the present invention) after UV exposure. The photoprotection assays to screen compounds for their UV protection efficacy during topical and oral applications as discussed in J Am Acad Dermatol 2003; 49: 458-472 is adopted as a reference.
(§2) Protocol I—Screening compounds suited for topical applications for UV protection efficacy 0.5×10^4 HaCaT human keratinocyte cells/well are counted and seeded into a 96 well micro titer plates. The cells are incubated at 37° C. in 5% CO2 for 24 hours. The growth medium is then removed and replaced with medium containing varying concentrations of the labdane-diterpenoids based composition of the present invention. The cells are immediately exposed to ultraviolet irradiation and further incubated for 72 hours. After 72 hours, the cell viability is determined by SRB assay.
(§3) The UV A exposure in both the protocols involves three UV A bulbs providing 108 watts of power. The plates are exposed for 1 hour at a distance of 5 cm from the source of light. The UV B exposure in both the protocols involves three UV B bulbs which provide 100 μwatt/cm^2 or 0.14 J/cm^2 irradiation dose. The plates are exposed for 7 minutes at a distance of 30 cm from the source of light.

cells of the skin = assay: Relative cytotoxicity (summary Table I); conditions: summary in words
[3] = system: HaCaT human keratinocyte cell line; assay: UV A protection of HaCaT keratinocytes, topical application model (Protocol I, SRB viability); conditions: for % UV A protection: Topical model; for UV protection UV A: summary in words, Table I, HaCaT, topical and oral protocols not separated
Experimental: as §1, §2, §3

[4] = system: HaCaT human keratinocyte cell line; assay: UV A protection of HaCaT keratinocytes, oral application model (Protocol II)
Experimental: as §1
(§4) Protocol II—Screening compounds suited for oral applications for UV protection efficacy 0.5×10^4 HaCaT human keratinocyte cells/well are counted and seeded into a 96 well micro titer plates. The cells are incubated at 37° C. in 5% CO2 for 24 hours. The growth medium is then removed and replaced with medium containing varying concentrations of the labdane-diterpenoids based composition of the present invention. The cells are then incubated for 24 hours to be followed by UV treatment. The UV treated cells are further incubated for 48 hours after which, cell viability is determined using the SRB or neutral red uptake assays.
as §3

[5] = system: HaCaT human keratinocyte cell line; assay: UV B protection of HaCaT keratinocytes, oral application model (Protocol II)
Experimental: as §1, §4, §3

SMILES | No. of folds of Melanin Enhancement compared to control ([1]; 0.25 μg/ml) [folds] | No. of folds of Melanin Enhancement compared to control ([1]; 0.5 μg/ml) [folds] | No. of folds of Melanin Enhancement compared to control ([1]; 1 μg/ml) | No. of folds of Melanin Enhancement compared to control ([1]; 2 μg/ml) | No. of folds of Melanin Enhancement compared to control ([1]; 3 μg/ml) | No. of folds of Melanin Enhancement compared to control ([1]; 5 μg/ml) | No. of folds of Melanin Enhancement compared to control ([1]; 12 μg/ml) | Melanin enhancement [1] | % UV B protection as compared to control ([2]; 0.25 μg/ml) [%] | % UV B protection as compared to control ([2]; 0.5 μg/ml) [%] | % UV B protection as compared to control ([2]; 1 μg/ml) | % UV B protection as compared to control ([2]; 2 μg/ml) | % UV B protection as compared to control ([2]; 3 μg/ml) | % UV B protection as compared to control ([2]; 5 μg/ml) | % UV B protection as compared to control ([2]; 12 μg/ml) | UV protection UV B [2] | % UV A protection ([3]; 0.25 μg/ml) [%] | % UV A protection ([3]; 0.5 μg/ml) [%] | % UV A protection ([3]; 1 μg/ml) | % UV A protection ([3]; 2 μg/ml) | further results
C=C[C@@]1(C)CC(=O)[C@]2(O)[C@@]3(C)[C@@H](O)CCC(C)(C)[C@@H]3[C@H](O)[C@H](OC(C)=O)[C@@]2(C)O1 [Active III, 7β-acetoxy-8,13-epoxy-1α,6β,9α-trihydroxylabd-14-en-11-one] | 1 | 1.1 | 1.5* folds | 2* folds | 2.8* folds | toxic | toxic | Moderate | 0 | 2 | 5% | 5% | 5% | toxic | toxic | Nil | 5 | 10 | 15* % | 20* % | Cytotoxicity (cells of the skin): Cytotoxic; % UV A protection ([3]; 3 μg/ml): 29* %; % UV A protection ([3]; 5 μg/ml): toxic; % UV A protection ([3]; 12 μg/ml): toxic; UV protection UV A [3]: Moderate; % UV A protection ([4]; 0.25 μg/ml): 10%; % UV A protection ([4]; 0.5 μg/ml): 15* %; % UV A protection ([4]; 1 μg/ml): 20* %; % UV A protection ([4]; 2 μg/ml): 26* %; % UV A protection ([4]; 3 μg/ml): 38* %; % UV A protection ([4]; 5 μg/ml): toxic; % UV A protection ([4]; 12 μg/ml): toxic; % UV B protection ([5]; 0.25 μg/ml): 0%; % UV B protection ([5]; 0.5 μg/ml): 2%; % UV B protection ([5]; 1 μg/ml): 4%; % UV B protection ([5]; 2 μg/ml): 4%; % UV B protection ([5]; 3 μg/ml): 5%; % UV B protection ([5]; 5 μg/ml): toxic; % UV B protection ([5]; 12 μg/ml): toxic
C=C[C@@]1(C)CC(=O)[C@]2(O)[C@@]3(C)[C@@H](O)CCC(C)(C)[C@@H]3[C@H](OC(C)=O)[C@H](O)[C@@]2(C)O1 [Active II, 6β-acetoxy-8,13-epoxy-1α,7β,9α-trihydroxylabd-14-en-11-one] | 1 | 1.1 | 1.6* folds | 2.3* folds | 3* folds | 3.45* folds | 3.5* folds | Moderate | 0 | 0 | 15* % | 25* % | 28* % | 30* % | 35* % | Moderate | 10 | 13 | 18* % | 25* % | dose levels still tolerated and effective, relative to the maximum tolerated dose levels of active III ([1]; mouse): 2.4 times; % UV A protection ([3]; 3 μg/ml): 35* %; % UV A protection ([3]; 5 μg/ml): 45* %; % UV A protection ([3]; 12 μg/ml): 50* %; UV protection UV A [3]: Moderate; % UV A protection ([4]; 0.25 μg/ml): 15* %; % UV A protection ([4]; 0.5 μg/ml): 25* %; % UV A protection ([4]; 1 μg/ml): 55* %; % UV A protection ([4]; 2 μg/ml): 75* %; % UV A protection ([4]; 3 μg/ml): 98* %; % UV A protection ([4]; 5 μg/ml): 97* %; % UV A protection ([4]; 12 μg/ml): 98* %; % UV B protection ([5]; 0.25 μg/ml): 10* %; % UV B protection ([5]; 0.5 μg/ml): 15* %; % UV B protection ([5]; 1 μg/ml): 18* %; % UV B protection ([5]; 2 μg/ml): 23* %; % UV B protection ([5]; 3 μg/ml): 30* %; % UV B protection ([5]; 5 μg/ml): 35* %; % UV B protection ([5]; 12 μg/ml): 40* %
